# Assay results from US9073855B2, “BCL-2 selective apoptosis-inducing agents for the treatment of cancer and immune diseases” (AbbVie Inc., priority 2008, dated 2015).
# Tests used:
# GST-Bcl-XL = GST-Bcl-XL (Homo sapiens, UniProt Q07817); experiment: TR-FRET binding assay, GST-Bcl-XL with F-Bak peptide probe; conditions: TR-FRET Binding Affinity, GST-Bcl-XL, F-Bak peptide probe
# Procedure, shortened: (§1)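 Ki was derived with Wang's equation for competitive binding of two ligands. The read-out was time-resolved fluorescence after a 3 h room-temperature incubation, using a Tb-labelled antibody donor and the F-Bak peptide acceptor (excitation 340/35 nm). Test compounds entered as DMSO serial dilutions starting at 50 μM, which was the 2× concentration.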
# GST-Bcl-2 = GST-Bcl-2 (Homo sapiens, UniProt P10415); experiment: TR-FRET binding assay, GST-Bcl-2 with F-Bak peptide probe; conditions: TR-FRET Binding Affinity
# Chain of GST-Bcl-2 (P10415 whole entry): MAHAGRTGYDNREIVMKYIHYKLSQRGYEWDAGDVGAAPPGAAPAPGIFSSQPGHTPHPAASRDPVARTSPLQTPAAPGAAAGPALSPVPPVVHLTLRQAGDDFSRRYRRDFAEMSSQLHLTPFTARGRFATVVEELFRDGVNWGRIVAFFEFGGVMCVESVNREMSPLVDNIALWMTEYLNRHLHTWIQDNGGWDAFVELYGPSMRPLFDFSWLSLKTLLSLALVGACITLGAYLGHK
# Procedure, shortened: as §1
# FL5.12/Bcl-2 cells = experiment: FL5.12/Bcl-2 cell viability assay under IL-3 withdrawal (CellTitre Glo); assay type: cell-based, murine; conditions: Mus musculus, IL-3 withdrawn 48 hrs, then 24 hrs with compound
# From the text: FL5.12 is an IL-3 dependent prolymphocytic murine cell line that undergoes apoptosis upon IL-3 withdrawal as a result of the upregulation of pro-apoptotic Bcl-2 proteins such as Bim and Puma. Stable overexpression of anti-apoptotic Bcl-2 protein (FL5.12/Bcl-2) protects against apoptosis induced by IL-3 withdrawal by sequestration of Bim and Puma. […] The ability of compounds to kill FL5.12/Bcl-2 cells upon IL-3 withdrawal is a direct measure of the compounds' ability to inhibit anti-apoptotic Bcl-2 protein function.
# Wild type FL5.12/Bcl-2 overexpressing stable transfectants were cultured in RPMI-1640 supplemented with 2 mM L-glutamine, 10% FBS, 1 mM sodium pyruvate, 2 mM HEPES, 1% penicillin/streptomycin (Invitrogen), 57 μM β-ME, and 10% WEHI-3B conditioned medium (source of IL-3) and maintained at 37° C. containing 5% CO2. 1×10^6 cells/ml were washed 1×PBS and resuspended in medium not supplemented with 10% WEHI-3B for 48 hrs prior to cytotoxicity assays. Cells were then treated for an additional 24 hrs in the presence of various concentrations of the indicated compounds. Cell viability was assessed by CellTitre Glo assay (Promega Corp.) according to the manufacturer's recommendations.
# Chain of GST-Bcl-XL (Q07817 whole entry): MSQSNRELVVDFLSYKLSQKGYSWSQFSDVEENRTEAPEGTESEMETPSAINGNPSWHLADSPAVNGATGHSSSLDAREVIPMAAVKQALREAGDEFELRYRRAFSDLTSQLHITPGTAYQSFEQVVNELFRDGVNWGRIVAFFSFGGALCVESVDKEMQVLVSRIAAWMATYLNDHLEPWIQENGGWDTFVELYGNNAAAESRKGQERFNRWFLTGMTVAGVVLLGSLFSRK
SMILES,Ki (GST-Bcl-XL),"Ki (GST-Bcl-2; GST-Bcl-2, F-Bak peptide probe)",EC50 (FL5.12/Bcl-2 cells),Ki (GST-Bcl-2)
"CN(C)CCOc1cccc(-c2ccc(Cl)cc2)c1CN1CCN(c2ccc(C(=O)NS(=O)(=O)c3ccc(NC4CCN(C)CC4)c([N+](=O)[O-])c3)c(Oc3cccc4[nH]ccc34)c2)CC1 [Example 205, 4-[4-({4′-chloro-3-[2-(dimethylamino)ethoxy]-1,1′-biphenyl-2-yl}methyl)piperazin-1-yl]-2-(1H-indol-4-yloxy)-N-({4-[(1-methylpiperidin-4-yl)amino]-3-nitrophenyl}sulfonyl)benzamide]",3.57 nM,0.005 nM,37.5 nM,–
"CC1(C)CCC(CN2CCN(c3ccc(C(=O)NS(=O)(=O)c4ccc(OCC5COCCO5)c([N+](=O)[O-])c4)c(Oc4ccc5[nH]ccc5c4)c3)CC2)=C(c2ccc(Cl)cc2)C1 (stereo not drawn) [Example 297, 4-(4-{[2-(4-chlorophenyl)-4,4-dimethylcyclohex-1-en-1-yl]methyl}piperazin-1-yl)-N-{[4-(1,4-dioxan-2-ylmethoxy)-3-nitrophenyl]sulfonyl}-2-(1H-indol-5-yloxy)benzamide]",283 nM,–,13.2 nM,–
"CC(C)[C@H](CO)Nc1ccc(S(=O)(=O)NC(=O)c2ccc(N3CCN(CC4=C(c5ccc(Cl)cc5)CC(C)(C)CC4)CC3)cc2Oc2ccc3[nH]ccc3c2)cc1[N+](=O)[O-] [Example 371, 4-(4-{[2-(4-chlorophenyl)-4,4-dimethylcyclohex-1-en-1-yl]methyl}piperazin-1-yl)-N-[(4-{[(1R)-1-(hydroxymethyl)-2-methylpropyl]amino}-3-nitrophenyl)sulfonyl]-2-(1H-indol-5-yloxy)benzamide]",> 660 nM,8.38 nM,> 500 nM,–
"CC1(C)CCC(CN2CCN(c3ccc(C(=O)NS(=O)(=O)c4ccc(OCC5(F)CCOCC5)c([N+](=O)[O-])c4)c(Oc4ccc5[nH]ccc5c4)c3)CC2)=C(c2ccc(Cl)cc2)C1 [Example 327, 4-(4-{[2-(4-chlorophenyl)-4,4-dimethylcyclohex-1-en-1-yl]methyl}piperazin-1-yl)-N-({4-[(4-fluorotetrahydro-2H-pyran-4-yl)methoxy]-3-nitrophenyl}sulfonyl)-2-(1H-indol-5-yloxy)benzamide]",95.6 nM,0.031 nM,6.57 nM,–
"CN(C)C1CCC(Nc2ccc(S(=O)(=O)NC(=O)c3ccc(N4CCN(CC5=C(c6ccc(Cl)cc6)CC(C)(C)CC5)CC4)cc3Oc3cccc4[nH]ccc34)cc2[N+](=O)[O-])CC1 (stereo not drawn) [Example 202, 4-(4-{[2-(4-chlorophenyl)-4,4-dimethylcyclohex-1-en-1-yl]methyl}piperazin-1-yl)-N-[(4-{[4-(dimethylamino)cyclohexyl]amino}-3-nitrophenyl)sulfonyl]-2-(1H-indol-4-yloxy)benzamide]",5.07 nM,0.052 nM,13.8 nM,–
"O=C(NS(=O)(=O)c1ccc(NCC2CCOCC2)c(S(=O)(=O)C(F)(F)F)c1)c1ccc(N2CCN(Cc3ccccc3N3CC4CCC(CC4)C3)CC2)cc1Oc1ccccc1 [Example 475, 4-{4-[2-(3-azabicyclo[3.2.2]non-3-yl)benzyl]piperazin-1-yl}-2-phenoxy-N-({4-[(tetrahydro-2H-pyran-4-ylmethyl)amino]-3-[(trifluoromethyl)sulfonyl]phenyl}sulfonyl)benzamide]",–,–,223 nM,–
"COCCNc1ccc(S(=O)(=O)NC(=O)c2ccc(N3CCN(CC4=C(c5ccc(Cl)cc5)CC(C)(C)CC4)CC3)cc2Oc2ccc3[nH]ccc3c2)cc1S(=O)(=O)C(F)(F)F [Example 315, 4-(4-{[2-(4-chlorophenyl)-4,4-dimethylcyclohex-1-en-1-yl]methyl}piperazin-1-yl)-2-(1H-indol-5-yloxy)-N-({4-[(2-methoxyethyl)amino]-3-[(trifluoromethyl)sulfonyl]phenyl}sulfonyl)benzamide]",> 660 nM,–,> 500 nM,–
"CC1(C)CCC(CN2CCN(c3ccc(C(=O)NS(=O)(=O)c4ccc(NCC5CCOCC5)c(S(=O)(=O)C(F)(F)F)c4)c(Oc4ccc5[nH]ccc5c4)c3)CC2)=C(c2ccc(Cl)cc2)C1 [Example 304, 4-(4-{[2-(4-chlorophenyl)-4,4-dimethylcyclohex-1-en-1-yl]methyl}piperazin-1-yl)-2-(1H-indol-5-yloxy)-N-({4-[(tetrahydro-2H-pyran-4-ylmethyl)amino]-3-[(trifluoromethyl)sulfonyl]phenyl}sulfonyl)benzamide]",> 660 nM,–,415 nM,–
"CC1(C)CCC(CN2CCN(c3ccc(C(=O)NS(=O)(=O)c4ccc(NC[C@H]5CCCOC5)c([N+](=O)[O-])c4)c(Oc4ccc5[nH]ccc5c4)c3)CC2)=C(c2ccc(Cl)cc2)C1 [Example 181, 4-(4-{[2-(4-chlorophenyl)-4,4-dimethylcyclohex-1-en-1-yl]methyl}piperazin-1-yl)-2-(1H-indol-5-yloxy)-N-[(3-nitro-4-{[(3R)-tetrahydro-2H-pyran-3-ylmethyl]amino}phenyl)sulfonyl]benzamide]",> 660 nM,–,33.5 nM,–
"COCCNc1ccc(S(=O)(=O)NC(=O)c2ccc(N3CCN(CC4=C(c5ccc(Cl)cc5)CC(C)(C)CC4)CC3)cc2Oc2ccc3[nH]ccc3c2)cc1[N+](=O)[O-] [Example 179, 4-(4-{[2-(4-chlorophenyl)-4,4-dimethylcyclohex-1-en-1-yl]methyl}piperazin-1-yl)-2-(1H-indol-5-yloxy)-N-({4-[(2-methoxyethyl)amino]-3-nitrophenyl}sulfonyl)benzamide]",> 660 nM,–,23.5 nM,–
"O=C(NS(=O)(=O)c1ccc(NCCCN2CCOCC2)c([N+](=O)[O-])c1)c1ccc(N2CCN(Cc3ccccc3N3CC4CCC(CC4)C3)CC2)cc1Oc1ccccc1 [Example 477, 4-{4-[2-(3-azabicyclo[3.2.2]non-3-yl)benzyl]piperazin-1-yl}-N-({4-[(3-morpholin-4-ylpropyl)amino]-3-nitrophenyl}sulfonyl)-2-phenoxybenzamide]",–,–,> 1670 nM,8.5 nM
"CC1(C)CCC(CN2CCN(c3ccc(C(=O)NS(=O)(=O)c4ccc(NC[C@@H]5CCCOC5)c([N+](=O)[O-])c4)c(Oc4ccc5[nH]ccc5c4)c3)CC2)=C(c2ccc(Cl)cc2)C1 [Example 180, 4-(4-{[2-(4-chlorophenyl)-4,4-dimethylcyclohex-1-en-1-yl]methyl}piperazin-1-yl)-2-(1H-indol-5-yloxy)-N-[(3-nitro-4-{[(3S)-tetrahydro-2H-pyran-3-ylmethyl]amino}phenyl)sulfonyl]benzamide]",> 660 nM,–,20.5 nM,–
"O=C(NS(=O)(=O)c1ccc(NCC2CCOCC2)c([N+](=O)[O-])c1)c1ccc(N2CCN(Cc3ccccc3C3=C[C@H]4C[C@@H]3C3CCCC34)CC2)cc1Oc1ccccc1 (stereo partly drawn) [Example 478, 4-(4-{2-[(4R,7S)-2,3,3a,4,7,7a-hexahydro-1H-4,7-methanoinden-5-yl]benzyl}piperazin-1-yl)-N-({3-nitro-4-[(tetrahydro-2H-pyran-4-ylmethyl)amino]phenyl}sulfonyl)-2-phenoxybenzamide]",–,–,> 5000 nM,–
"O=C(NS(=O)(=O)c1ccc(NCC2CCOCC2)c([N+](=O)[O-])c1)c1ccc(N2CCN(Cc3ccccc3N3CC4CCC(CC4)C3)CC2)cc1Oc1ccccc1 [Example 474, 4-{4-[2-(3-azabicyclo[3.2.2]non-3-yl)benzyl]piperazin-1-yl}-N-({3-nitro-4-[(tetrahydro-2H-pyran-4-ylmethyl)amino]phenyl}sulfonyl)-2-phenoxybenzamide]",–,–,93.4 nM,8.1 nM
"CC1(C)CCC(CN2CCN(c3ccc(C(=O)NS(=O)(=O)c4ccc(N[C@H]5CC[C@H](N6CCOCC6)CC5)c([N+](=O)[O-])c4)c(Oc4ccc5[nH]ccc5c4)c3)CC2)=C(c2ccc(Cl)cc2)C1 [Example 178, Trans-4-(4-{[2-(4-chlorophenyl)-4,4-dimethylcyclohex-1-en-1-yl]methyl}piperazin-1-yl)-2-(1H-indol-5-yloxy)-N-({4-[(4-morpholin-4-ylcyclohexyl)amino]-3-nitrophenyl}sulfonyl)benzamide]",> 660 nM,–,18.6 nM,–
"CC1(C)CCC(CN2CCN(c3ccc(C(=O)NS(=O)(=O)c4ccc(NCC5CCCOC5)c([N+](=O)[O-])c4)c(Oc4ccc5[nH]ccc5c4)c3)CC2)=C(c2ccc(Cl)cc2)C1 (stereo not drawn) [Example 261, 4-(4-{[2-(4-chlorophenyl)-4,4-dimethylcyclohex-1-en-1-yl]methyl}piperazin-1-yl)-2-(1H-indol-5-yloxy)-N-({3-nitro-4-[(tetrahydro-2H-pyran-3-ylmethyl)amino]phenyl}sulfonyl)benzamide]",> 660 nM,–,17 nM,–
"CC1(C)CCC(CN2CCN(c3ccc(C(=O)NS(=O)(=O)c4ccc(NCCOC(F)(F)F)c([N+](=O)[O-])c4)c(Oc4ccc5[nH]ccc5c4)c3)CC2)=C(c2ccc(Cl)cc2)C1 [Example 300, 4-(4-{[2-(4-chlorophenyl)-4,4-dimethylcyclohex-1-en-1-yl]methyl}piperazin-1-yl)-2-(1H-indol-5-yloxy)-N-[(3-nitro-4-{[2-(trifluoromethoxy)ethyl]amino}phenyl)sulfonyl]benzamide]",> 660 nM,–,62.1 nM,–
